Holding throughout (format): functional, cell-based
Series [1] addresses T1, ATP-binding cassette sub-family C member 2 (Homo sapiens, UniProt Q92887). Put plainly: TP_TRANSPORTER: inhibition of 5-carboxyfluorescein accumulation in MRP2-expressing MDCK cells. The following applies: dog.
Series [2] deals with T1, ATP-binding cassette sub-family C member 2. Put plainly: TP_TRANSPORTER: inhibition of 5-carboxyfluorescein accumulation by glyburide at a concentration of 200uM in MRP2-expressing MDCK cells. Also on record: scale not given: the % may be the effect or the level left. As to conditions: dog.
Series [3] addresses T2, Broad substrate specificity ATP-binding cassette transporter ABCG2 (Homo sapiens, UniProt Q9UNQ0).
T2 sequence (Q9UNQ0 whole entry): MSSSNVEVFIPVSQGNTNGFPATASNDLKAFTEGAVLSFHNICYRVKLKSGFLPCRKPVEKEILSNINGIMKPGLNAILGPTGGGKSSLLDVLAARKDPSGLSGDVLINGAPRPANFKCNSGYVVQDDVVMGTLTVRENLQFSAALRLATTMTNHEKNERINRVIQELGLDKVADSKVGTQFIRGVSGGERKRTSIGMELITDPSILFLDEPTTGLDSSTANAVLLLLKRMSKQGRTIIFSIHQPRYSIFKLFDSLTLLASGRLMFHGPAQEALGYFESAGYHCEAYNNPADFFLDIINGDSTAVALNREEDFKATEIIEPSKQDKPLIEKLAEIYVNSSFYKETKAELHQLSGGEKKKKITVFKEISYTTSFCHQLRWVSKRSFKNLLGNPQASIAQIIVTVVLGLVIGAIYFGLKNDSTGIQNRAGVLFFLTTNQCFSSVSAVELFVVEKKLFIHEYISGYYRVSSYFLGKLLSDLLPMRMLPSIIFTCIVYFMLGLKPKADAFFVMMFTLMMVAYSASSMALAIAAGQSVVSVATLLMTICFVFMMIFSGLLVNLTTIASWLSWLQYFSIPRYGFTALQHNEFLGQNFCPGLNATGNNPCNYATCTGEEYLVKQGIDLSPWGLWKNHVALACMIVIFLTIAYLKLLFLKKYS
Put plainly: TP_TRANSPORTER: inhibition of mitoxantrone efflux in BCRP-expressing MCF7-MX cells.

In series [4] the target is Multidrug resistance associated protein (Homo sapiens) (UniProt Q96QA9). Put plainly: TP_TRANSPORTER: inhibition of 5-carboxyfluorescein accumulation by glyburide at a concentration of 200uM in MRP3-expressing MDCK cells. More on the design: scale not given: the % may be the effect or the level left.
Sequence of Multidrug resistance associated protein (Homo sapiens) (Q96QA9 as listed by the source): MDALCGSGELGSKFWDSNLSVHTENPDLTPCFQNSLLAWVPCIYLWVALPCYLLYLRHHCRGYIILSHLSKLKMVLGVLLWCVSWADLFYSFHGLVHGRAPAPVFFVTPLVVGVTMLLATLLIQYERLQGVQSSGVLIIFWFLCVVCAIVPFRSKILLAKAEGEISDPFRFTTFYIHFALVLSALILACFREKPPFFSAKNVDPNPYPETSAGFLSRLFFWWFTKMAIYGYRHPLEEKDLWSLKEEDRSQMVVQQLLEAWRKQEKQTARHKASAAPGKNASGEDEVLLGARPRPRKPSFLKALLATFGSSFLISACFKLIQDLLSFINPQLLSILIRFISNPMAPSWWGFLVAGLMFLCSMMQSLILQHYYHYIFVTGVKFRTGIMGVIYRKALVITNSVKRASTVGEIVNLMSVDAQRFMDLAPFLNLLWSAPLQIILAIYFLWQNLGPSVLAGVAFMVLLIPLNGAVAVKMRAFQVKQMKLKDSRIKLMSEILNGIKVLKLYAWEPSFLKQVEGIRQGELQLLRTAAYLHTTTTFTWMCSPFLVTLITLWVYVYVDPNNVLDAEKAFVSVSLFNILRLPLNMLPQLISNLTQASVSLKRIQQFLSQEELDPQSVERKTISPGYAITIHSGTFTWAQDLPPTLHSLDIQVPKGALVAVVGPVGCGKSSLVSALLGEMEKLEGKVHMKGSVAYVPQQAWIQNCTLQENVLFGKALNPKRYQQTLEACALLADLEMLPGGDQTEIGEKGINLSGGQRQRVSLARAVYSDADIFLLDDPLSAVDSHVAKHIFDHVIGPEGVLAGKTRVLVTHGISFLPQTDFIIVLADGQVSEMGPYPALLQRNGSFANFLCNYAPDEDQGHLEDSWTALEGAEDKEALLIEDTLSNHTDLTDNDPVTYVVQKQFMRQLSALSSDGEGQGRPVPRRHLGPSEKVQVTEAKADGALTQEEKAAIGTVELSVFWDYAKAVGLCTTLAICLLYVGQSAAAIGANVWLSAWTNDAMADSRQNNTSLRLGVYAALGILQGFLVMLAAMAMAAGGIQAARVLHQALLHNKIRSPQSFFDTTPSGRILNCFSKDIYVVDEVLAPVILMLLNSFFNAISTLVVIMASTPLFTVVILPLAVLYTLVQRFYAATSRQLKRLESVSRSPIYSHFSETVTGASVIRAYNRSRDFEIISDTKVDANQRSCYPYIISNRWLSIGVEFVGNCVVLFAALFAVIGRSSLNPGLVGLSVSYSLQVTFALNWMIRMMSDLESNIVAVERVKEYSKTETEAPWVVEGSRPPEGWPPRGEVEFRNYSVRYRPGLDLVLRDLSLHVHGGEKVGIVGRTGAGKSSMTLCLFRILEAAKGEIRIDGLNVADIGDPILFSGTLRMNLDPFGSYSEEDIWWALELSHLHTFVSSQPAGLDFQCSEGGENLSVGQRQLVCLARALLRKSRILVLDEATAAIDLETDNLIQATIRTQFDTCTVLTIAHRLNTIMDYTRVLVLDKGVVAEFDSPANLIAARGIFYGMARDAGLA
Series [5] has the same target. In words: TP_TRANSPORTER: inhibition of 5-carboxyfluorescein accumulation by glyburide at a concentration of 10uM in MRP3-expressing MDCK cells.
The target in series [6] is T3, Multidrug resistance-associated protein 1 (Mus musculus, UniProt O35379). In words: TP_TRANSPORTER: inhibition of 5-carboxyfluorescein accumulation in the presence of glyburide at a concentration of 10uM in MRP1-expressing HeLa cells. As to conditions: human.
T3 sequence (O35379 whole entry): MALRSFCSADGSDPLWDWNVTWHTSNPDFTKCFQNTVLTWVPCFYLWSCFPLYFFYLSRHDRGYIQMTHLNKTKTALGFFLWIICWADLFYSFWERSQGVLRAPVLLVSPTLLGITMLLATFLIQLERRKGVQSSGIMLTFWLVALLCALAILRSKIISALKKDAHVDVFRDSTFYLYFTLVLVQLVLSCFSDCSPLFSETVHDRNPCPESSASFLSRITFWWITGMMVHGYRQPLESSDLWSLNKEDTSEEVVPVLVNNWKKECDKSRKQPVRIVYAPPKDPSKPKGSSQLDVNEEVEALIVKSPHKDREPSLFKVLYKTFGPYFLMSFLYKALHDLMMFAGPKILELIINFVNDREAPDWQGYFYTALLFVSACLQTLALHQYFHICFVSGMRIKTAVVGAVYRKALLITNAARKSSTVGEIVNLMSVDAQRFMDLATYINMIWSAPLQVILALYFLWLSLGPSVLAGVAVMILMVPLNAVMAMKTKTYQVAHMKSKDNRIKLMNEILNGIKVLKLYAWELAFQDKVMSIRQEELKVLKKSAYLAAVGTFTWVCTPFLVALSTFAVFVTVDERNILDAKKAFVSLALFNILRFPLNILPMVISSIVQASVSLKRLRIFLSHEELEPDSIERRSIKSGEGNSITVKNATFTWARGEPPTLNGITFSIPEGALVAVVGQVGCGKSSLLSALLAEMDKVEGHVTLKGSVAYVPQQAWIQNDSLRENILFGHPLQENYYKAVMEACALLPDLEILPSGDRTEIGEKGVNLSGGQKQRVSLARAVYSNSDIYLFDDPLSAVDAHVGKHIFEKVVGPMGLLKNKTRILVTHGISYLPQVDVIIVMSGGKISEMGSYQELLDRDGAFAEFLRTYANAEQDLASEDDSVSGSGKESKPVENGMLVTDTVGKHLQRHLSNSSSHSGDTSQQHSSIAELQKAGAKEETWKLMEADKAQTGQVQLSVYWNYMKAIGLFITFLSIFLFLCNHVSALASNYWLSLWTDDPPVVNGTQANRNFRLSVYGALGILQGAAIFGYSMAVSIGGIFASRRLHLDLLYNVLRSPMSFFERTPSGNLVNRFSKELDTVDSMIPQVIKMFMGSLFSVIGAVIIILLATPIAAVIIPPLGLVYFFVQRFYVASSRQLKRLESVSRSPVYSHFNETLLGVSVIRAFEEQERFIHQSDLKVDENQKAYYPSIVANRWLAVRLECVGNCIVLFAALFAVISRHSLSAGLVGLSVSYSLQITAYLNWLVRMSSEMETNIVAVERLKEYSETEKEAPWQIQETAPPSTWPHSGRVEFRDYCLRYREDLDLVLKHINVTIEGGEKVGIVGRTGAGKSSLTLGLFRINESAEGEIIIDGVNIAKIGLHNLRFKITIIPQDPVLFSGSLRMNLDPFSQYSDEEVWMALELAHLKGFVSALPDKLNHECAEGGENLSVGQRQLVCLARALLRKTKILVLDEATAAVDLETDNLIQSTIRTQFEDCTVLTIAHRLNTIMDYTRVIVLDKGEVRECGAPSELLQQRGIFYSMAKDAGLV
Series [7] deals with Multidrug resistance associated protein (Homo sapiens) (UniProt Q96QA9). Put plainly: TP_TRANSPORTER: inhibition of glyburide accumulation by indomethacin at a concentration of 200uM in MRP3-expressing MDCK cells.
Series [8] has the same target. Put plainly: TP_TRANSPORTER: inhibition of 5-carboxyfluorescein accumulation by indomethacin at a concentration of 200uM in MRP3-expressing MDCK cells. More on the design: scale not given: the % may be the effect or the level left.
For series [9], the target named is T1, ATP-binding cassette sub-family C member 2. Put plainly: TP_TRANSPORTER: inhibition of glyburide accumulation in MRP2-expressing MDCK cells. The following applies: dog.
Series [10] deals with T3, Multidrug resistance-associated protein 1. Put plainly: TP_TRANSPORTER: inhibition of glyburide accumulation in the presence of indomethacin at a concentration of 200uM in MRP1-expressing HeLa cells. The following applies: human.
Series [11] has the same target. Put plainly: TP_TRANSPORTER: inhibition of 5-carboxyfluorescein accumulation in the presence of indomethacin at a concentration of 200uM in MRP1-expressing HeLa cells. More on the design: scale not given: the % may be the effect or the level left. As to conditions: human.

T1 sequence (Q92887 whole entry): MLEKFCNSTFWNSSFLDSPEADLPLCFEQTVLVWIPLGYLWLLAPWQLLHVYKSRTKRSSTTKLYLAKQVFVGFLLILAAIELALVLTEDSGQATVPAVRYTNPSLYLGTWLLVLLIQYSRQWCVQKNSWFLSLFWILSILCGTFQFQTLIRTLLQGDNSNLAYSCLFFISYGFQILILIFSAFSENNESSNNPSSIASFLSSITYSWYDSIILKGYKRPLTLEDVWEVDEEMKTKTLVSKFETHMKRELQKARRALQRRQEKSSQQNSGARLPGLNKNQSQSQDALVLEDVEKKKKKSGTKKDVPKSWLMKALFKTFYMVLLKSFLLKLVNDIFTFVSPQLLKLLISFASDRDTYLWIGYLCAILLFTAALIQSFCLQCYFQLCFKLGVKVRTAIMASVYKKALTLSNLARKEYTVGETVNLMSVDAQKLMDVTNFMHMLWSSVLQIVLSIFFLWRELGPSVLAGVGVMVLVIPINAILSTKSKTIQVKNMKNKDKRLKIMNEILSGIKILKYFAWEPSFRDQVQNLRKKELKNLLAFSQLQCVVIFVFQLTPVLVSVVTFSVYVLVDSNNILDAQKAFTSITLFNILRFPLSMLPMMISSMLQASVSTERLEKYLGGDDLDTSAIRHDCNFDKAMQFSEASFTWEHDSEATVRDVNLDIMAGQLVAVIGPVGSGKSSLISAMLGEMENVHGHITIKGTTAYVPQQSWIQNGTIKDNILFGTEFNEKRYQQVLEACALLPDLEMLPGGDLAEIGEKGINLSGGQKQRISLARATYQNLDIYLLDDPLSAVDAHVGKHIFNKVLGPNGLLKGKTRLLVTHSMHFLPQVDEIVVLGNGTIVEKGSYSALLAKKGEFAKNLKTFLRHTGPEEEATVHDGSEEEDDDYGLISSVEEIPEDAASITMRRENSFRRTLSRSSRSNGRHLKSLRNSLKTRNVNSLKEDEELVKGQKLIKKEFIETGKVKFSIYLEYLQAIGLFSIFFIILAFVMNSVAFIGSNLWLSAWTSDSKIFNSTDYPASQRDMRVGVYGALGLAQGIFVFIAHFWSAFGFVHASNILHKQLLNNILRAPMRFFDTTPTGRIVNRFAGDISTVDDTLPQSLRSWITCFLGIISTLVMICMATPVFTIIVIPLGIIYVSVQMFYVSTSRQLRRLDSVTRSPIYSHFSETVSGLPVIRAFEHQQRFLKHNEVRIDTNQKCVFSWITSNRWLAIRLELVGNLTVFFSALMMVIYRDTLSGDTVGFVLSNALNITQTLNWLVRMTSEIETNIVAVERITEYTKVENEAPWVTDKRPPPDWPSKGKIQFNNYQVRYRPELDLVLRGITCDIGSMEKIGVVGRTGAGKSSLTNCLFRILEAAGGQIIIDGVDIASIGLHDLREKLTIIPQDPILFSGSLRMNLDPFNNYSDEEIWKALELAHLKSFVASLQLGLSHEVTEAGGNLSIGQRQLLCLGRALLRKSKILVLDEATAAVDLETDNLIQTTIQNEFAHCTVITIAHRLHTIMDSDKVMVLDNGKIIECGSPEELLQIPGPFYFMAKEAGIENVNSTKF

Turning to `COc1ccc(Cl)cc1C(=O)NCCc1ccc(S(=O)(=O)NC(=O)NC2CCCCC2)cc1` [GLYBURIDE], the Activity result in series [1] is “is not an inhibitor [-]”; in series [2], 230%; in series [4], 1350%; in series [5], “is not a inhibitor [-]”; in series [6], “is not an inhibitor [-]”. Also, in series [3], the IC50 (in general, the concentration at which inhibition is half-maximal) worked out at 150 µM.
As to `COc1ccc2c(c1)c(CC(=O)O)c(C)n2C(=O)c1ccc(Cl)cc1` [INDOMETHACIN], the Activity was 1.8 fold in series [7]; 350% in series [8]; “is not an inhibitor [-]” in series [9]; “inhibitor [+]” in series [10]; 170% in series [11].

For the origin of these results see ChEMBL document CHEMBL2073864, “Transport of glyburide by placental ABC transporters: implications in fetal drug exposure” (Placenta, 2006).
